16 compounds from ChEMBL document CHEMBL2440056, “α-Glucosidase-inhibitory iminosugars from the leaves of Suregada glomerulata” (Bioorg Med Chem, 2013) can be followed below.

One may read the pIC50 as −log10 of the IC50, conventionally taken in molar units.

Assay [1] can be described thus: Inhibition of rat intestinal alpha-glucosidase using sucrose as substrate assessed as glucose formation incubated for 10 mins prior to substrate addition measured after 30 mins by glucose oxidase method.
In assay [2] the test system is Mus musculus. Kind of assay: Hypoglycemic effect in starch-challenged ICR mouse assessed as blood glucose level at 10 mg/kg, po after 60 mins by glucose oxidase method (reference value: 243.0 +/- 29.0 mg/dL). The class given is functional.
In assay [3] the test system is Mus musculus. Kind of assay: Hypoglycemic effect in starch-challenged ICR mouse assessed as blood glucose level at 10 mg/kg, po after 120 mins by glucose oxidase method (reference value: 174.2 +/- 22.9 mg/dL). The class given is functional.
The test system of assay [4] is Mus musculus. Nature of the assay: Hypoglycemic effect in starch-challenged ICR mouse assessed as glucose AUC at 10 mg/kg, po by glucose oxidase method (reference value: 430.1 +/- 44.7 mg.hr/dL). The class given is functional, organism-based. On the set-up: dose 10 mg/kg.
Assay [5] concerns Mus musculus. Nature of the assay: Hypoglycemic effect in sucrose-challenged ICR mouse assessed as blood glucose level at 10 mg/kg, po after 120 mins by glucose oxidase method (reference value: 137.8 +/- 14.5 mg/dL). The class given is functional.
Assay [6] deals with Mus musculus. Nature of the assay: Hypoglycemic effect in sucrose-challenged ICR mouse assessed as blood glucose level at 10 mg/kg, po after 60 mins by glucose oxidase method (reference value: 183.3 +/- 29.1 mg/dL). The class given is functional.
In assay [7] the test system is Mus musculus. Kind of assay: Hypoglycemic effect in sucrose-challenged ICR mouse assessed as glucose AUC at 10 mg/kg, po by glucose oxidase method (reference value: 323.2 +/- 37.2 mg.hr/dL). More on the design: dose 10 mg/kg. The class given is functional, organism-based.
For assay [8], the system named is Mus musculus. Nature of the assay: Hypoglycemic effect in starch-challenged ICR mouse assessed as blood glucose level at 10 mg/kg, po after 30 mins by glucose oxidase method (reference value: 278.9 +/- 33.5 mg/dL). The class given is functional.
Assay [9] concerns Mus musculus. Nature of the assay: Hypoglycemic effect in sucrose-challenged ICR mouse assessed as blood glucose level at 10 mg/kg, po after 30 mins by glucose oxidase method (reference value: 187.4 +/- 21.6 mg/dL). The class given is functional.

pIC50: −log10 of the molar value.

`CN1[C@H](CO)[C@@H](O)C[C@@H](O)[C@@H]1CO`: the pIC50 in assay [1] was 4.65.
Same read-out and setting: the figure for `OC[C@@H]1N[C@H](CO)[C@@H](O)[C@H](O)[C@@H]1O` is 4.72.
`CN1[C@H](CO)[C@H](O)[C@@H](O)[C@H](O)[C@H]1CO`: the Activity with Mus musculus [2] worked out at 144.8 mg/dL; with Mus musculus [3], 141.2 mg/dL; with Mus musculus [5], 115.6 mg/dL; in the assay on Mus musculus [6], 114 mg/dL; in the assay on Mus musculus [8], 141 mg/dL; with Mus musculus [9], 121.4 mg/dL. The AUC in the assay on Mus musculus [4] was 2.72e+06 ng·h/mL; in the assay with Mus musculus [7], 2.28e+06 ng·h/mL. Further, the pIC50 in [1] is 7.10.
Consider `C[C@H]1N[C@H](CO)[C@@H](O)[C@H](O)[C@H]1O`, for which the pIC50 in assay [1] is 4.66.
On the same count and under the same terms, the figure for `CN1[C@H](CO)[C@H](O)C[C@H](O)[C@H]1CO` is 4.70; for `OCCCCCCCC[C@H]1N[C@H](CO)[C@@H](O)[C@H](O)[C@H]1O` it is 5.26; for `OC[C@@H]1N[C@H](CO)[C@@H](O)[C@H](O)[C@H]1O` it is 4.61.
As to `CN1[C@H](CO[C@@H]2O[C@H](CO)[C@@H](O)[C@H](O)[C@H]2O)[C@H](O)[C@@H](O)[C@H](O)[C@H]1CO`, in [1], the negative logarithm of the IC50 (pIC50) is 4.61.
In the case of `CCCCN1[C@H](CO[C@@H]2O[C@H](CO)[C@@H](O)[C@H](O)[C@H]2O)[C@H](O)[C@@H](O)[C@H](O)[C@H]1CO`, the negative-log IC50 (pIC50) in assay [1] is 4.64.
Consider `C[C@H]1O[C@H](O[C@H]2[C@H](O)[C@@H](O)[C@@H](O[C@H]3[C@H](O)[C@@H](O)C(O)O[C@@H]3CO)O[C@@H]2CO)[C@H](O)[C@@H](O)[C@@H]1N[C@H]1C=C(CO)[C@@H](O)[C@H](O)[C@H]1O` (stereo partly specified) [ACARBOSE], for which the Activity is 187.7 mg/dL with Mus musculus [2]; 177.5 mg/dL in the assay on Mus musculus [3]; 111.9 mg/dL in the assay on Mus musculus [5]; 118.4 mg/dL in the assay on Mus musculus [6]; 164.8 mg/dL in the assay on Mus musculus [8]; 114.6 mg/dL in the assay on Mus musculus [9]. The figures for the AUC in the assay with Mus musculus [4] and in the assay on Mus musculus [7] were 3.34e+06 ng·h/mL and 2.23e+06 ng·h/mL, respectively. The pIC50 in assay [1] is 6.27.
As for `OC[C@H]1N[C@H](CO[C@H]2O[C@H](CO)[C@@H](O)[C@H](O)[C@H]2O)[C@H](O)[C@@H](O)[C@@H]1O`, the pIC50 in assay [1] is 4.41.
`OC[C@H]1N[C@H](CO)[C@@H](O)[C@@H](O)[C@H]1O`: in [1], the pIC50 was 4.60.
In the case of `OC[C@@H](O)[C@H]1N[C@H](CO)[C@@H](O)[C@@H]1O`, the Activity came out at 216.2 mg/dL in the assay with Mus musculus [2]; 150.3 mg/dL in the assay on Mus musculus [3]; 136.7 mg/dL in the assay with Mus musculus [5]; 147.3 mg/dL with Mus musculus [6]; 262.8 mg/dL with Mus musculus [8]; 179 mg/dL in the assay with Mus musculus [9]. For the same compound, the figures for the AUC in the assay with Mus musculus [4] and with Mus musculus [7] were 3.9e+06 ng·h/mL and 2.94e+06 ng·h/mL, respectively. Besides, in assay [1], the pIC50 was 6.04.
Turning to `OC[C@H]1N[C@H](CO[C@@H]2O[C@H](CO)[C@@H](O)[C@H](O)[C@H]2O)[C@H](O)[C@@H](O)[C@@H]1O`, the Activity in the assay with Mus musculus [2] stood at 204.1 mg/dL; with Mus musculus [3] it was 146.8 mg/dL; in the assay on Mus musculus [5], 133.3 mg/dL; in the assay with Mus musculus [6] it was 135.1 mg/dL; in the assay on Mus musculus [8], 187.1 mg/dL; in the assay with Mus musculus [9] it was 130.8 mg/dL. Moreover, the AUC in the assay on Mus musculus [4] amounted to 3.41e+06 ng·h/mL; with Mus musculus [7], 2.58e+06 ng·h/mL. For the same compound, the pIC50 in assay [1] is 5.37.
As to `C[C@@H]1[C@H](O)[C@@H](O)[C@H](O)[C@@H](CO)N1C`, the pIC50 in assay [1] was 6.14.
Turning to `OC[C@H]1N[C@H](CO)[C@@H](O)[C@H](O)[C@H]1O`, the Activity in the assay with Mus musculus [2] was 176.4 mg/dL; with Mus musculus [3], 161.2 mg/dL; in the assay on Mus musculus [5], 136.4 mg/dL; in the assay on Mus musculus [6], 149.9 mg/dL; in the assay on Mus musculus [8], 129.3 mg/dL; with Mus musculus [9], 126 mg/dL. The figures for the AUC in the assay on Mus musculus [4] and in the assay on Mus musculus [7] were 2.99e+06 ng·h/mL and 2.68e+06 ng·h/mL, respectively. Moreover, in assay [1], the pIC50 was 7.05.
